Results taken from PubChem BioAssay AID248 (DTP/NCI, 2004).
Several values for one entry are separate records, joined by “and”; a condition that tells them apart may be missing. Identical values can stand only once. Inconclusive results and toxic doses are left out.

System: L1210 leukemia ip in BDF1 mice, survival T/C
Assay: NCI In Vivo Anticancer Drug Screen. Data for tumor model L1210 Leukemia (intraperitoneal) in B6D2F1 (BDF1) mice
Conditions: endpoint: mean survival time, higher = longer survival
Summary of the method: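 Ratio derived from survival: compound-dosed mice over vehicle-dosed mice, all bearing a transplantable tumor.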

[1] = dose: 50.0 mg/kg/injection, schedule: Q01DX009 (ip), vehicle: saline with Tween-80
[2] = dose: 100.0 mg/kg/injection, schedule: Q04DX003 (ip), vehicle: saline with Tween-80
[3] = dose: 200.0 mg/kg/injection, schedule: Q04DX003 (ip), vehicle: saline with Tween-80
[4] = dose: 400.0 mg/kg/injection, schedule: Q04DX003 (ip), vehicle: saline with Tween-80
[5] = dose: 100.0 mg/kg/injection, schedule: Q04DX003 (ip), vehicle: saline sonified
[6] = dose: 200.0 mg/kg/injection, schedule: Q04DX003 (ip), vehicle: saline sonified
[7] = dose: 400.0 mg/kg/injection, schedule: Q04DX003 (ip), vehicle: saline sonified
[8] = dose: 100.0 mg/kg/injection, schedule: Q04DX002 (ip), vehicle: Klucel (hydroxypropylcellulose) (HPC)
[9] = dose: 200.0 mg/kg/injection, schedule: Q04DX002 (ip), vehicle: Klucel (hydroxypropylcellulose) (HPC)
[10] = dose: 400.0 mg/kg/injection, schedule: Q04DX002 (ip), vehicle: Klucel (hydroxypropylcellulose) (HPC)
[11] = dose: 50.0 mg/kg/injection, schedule: Q01DX001 (ip), vehicle: saline
[12] = dose: 100.0 mg/kg/injection, schedule: Q01DX001 (ip), vehicle: saline
[13] = dose: 200.0 mg/kg/injection, schedule: Q01DX001 (ip), vehicle: saline
[14] = dose: 400.0 mg/kg/injection, schedule: Q01DX001 (ip), vehicle: saline

With `c1ccc(C(Nc2ccnc3nc[nH]c23)c2ccccc2)cc1` the T/C (dose: 25.0 mg/kg/injection, schedule: Q01DX001 (ip), vehicle: saline with Tween-80) was 107 % of control, the T/C (dose: 50.0 mg/kg/injection, schedule: Q01DX001 (ip), vehicle: saline with Tween-80) was 102 % of control and the T/C [1] was 96 % of control. For the same compound, the T/C (dose: 50.0 mg/kg/injection, schedule: Q04DX003 (ip), vehicle: saline with Tween-80) was 95 % of control, the T/C (dose: 75.0 mg/kg/injection, schedule: Q01DX001 (ip), vehicle: saline with Tween-80) was 101 % of control and the T/C (dose: 100.0 mg/kg/injection, schedule: Q01DX001 (ip), vehicle: saline with Tween-80) was 94 % of control. The T/C (dose: 100.0 mg/kg/injection, schedule: Q01DX009 (ip), vehicle: saline with Tween-80) was 107 % of control, the T/C [2] was 91 % of control and the T/C (dose: 200.0 mg/kg/injection, schedule: Q01DX001 (ip), vehicle: saline with Tween-80) was 93 % of control. For the same compound, the T/C [3] was 92 % of control.

With `COC(=O)C1=C(C(=O)OC)C2(C)OC1C1OC12` (stereo not given) the T/C (dose: 12.5 mg/kg/injection, schedule: Q01DX009 (ip), vehicle: Klucel (hydroxypropylcellulose) (HPC)) was 97 % of control and the T/C (dose: 25.0 mg/kg/injection, schedule: Q01DX009 (ip), vehicle: Klucel (hydroxypropylcellulose) (HPC)) was 90 % of control.

`CS(=O)(=O)OCCN=C(N)N[N+](=O)[O-]` was tested, and the T/C (dose: 20.0 mg/kg/injection, schedule: Q04DX003 (ip), vehicle: Klucel (hydroxypropylcellulose) (HPC)) was 95 % of control, the T/C (dose: 40.0 mg/kg/injection, schedule: Q04DX003 (ip), vehicle: Klucel (hydroxypropylcellulose) (HPC)) was 95 % of control and the T/C (dose: 80.0 mg/kg/injection, schedule: Q04DX003 (ip), vehicle: Klucel (hydroxypropylcellulose) (HPC)) was 97 % of control. For the same compound, the T/C (dose: 100.0 mg/kg/injection, schedule: Q04DX003 (ip), vehicle: Klucel (hydroxypropylcellulose) (HPC)) was 105 % of control.

With `CC(c1ccccc1)n1cncc1C(=O)N(C)C` (stereo not given) the T/C (dose: 50.0 mg/kg/injection, schedule: Q01DX009 (ip), vehicle: saline) was 96 % of control, the T/C (dose: 100.0 mg/kg/injection, schedule: Q01DX009 (ip), vehicle: saline) was 101 % of control and the T/C (dose: 100.0 mg/kg/injection, schedule: Q04DX003 (ip), vehicle: saline) was 97 % of control. The T/C (dose: 200.0 mg/kg/injection, schedule: Q01DX009 (ip), vehicle: saline) was 97 % of control and the T/C (dose: 200.0 mg/kg/injection, schedule: Q04DX003 (ip), vehicle: saline) was 93 % of control.

With `COc1cc([N+](=O)[O-])ccc1N` the T/C (dose: 100.0 mg/kg/injection, schedule: Q01DX009 (ip), vehicle: saline sonified) was 116 % of control, the T/C [2] was 105 % of control and the T/C (dose: 200.0 mg/kg/injection, schedule: Q01DX009 (ip), vehicle: saline sonified) was 95 % of control. For the same compound, the T/C [3] was 105 % of control, the T/C (dose: 400.0 mg/kg/injection, schedule: Q01DX009 (ip), vehicle: saline sonified) was 104 % of control and the T/C [4] was 115 % of control.

In the case of `COc1cc(C(=O)NN2C(N)=NC(N)=NC2(C)C)cc(OC)c1OC`, the T/C [5] is reported as 105 % of control, the T/C [6] is reported as 101 % of control and the T/C [7] is reported as 106 % of control.

`O=C(O)CCCN1C(=O)C2C3CCC(C3)C2C1=O` (stereo not given) was tested, and the T/C [2] was 103 % of control, the T/C [3] was 98 % of control and the T/C [4] was 107 % of control.

For `Cc1c(C)c(C)c(CC2(C)CSC2)c(CC2(C)CSC2)c1C`, the T/C [8] was 100 % of control, the T/C [9] was 91 % of control and the T/C [10] was 94 % of control.

With `CCCc1nc2ccccc2c(=O)n1/N=C/c1ccc(Cl)cc1Cl` the T/C [8] was 96 % of control, the T/C [9] was 92 % of control and the T/C [10] was 103 % of control.

In the case of `CC(=O)N=c1sccn1Cc1ccccc1`, the T/C (dose: 75.0 mg/kg/injection, schedule: Q01DX001 (ip), vehicle: carboxymethylcellulose (CMC)) is reported as 95 % of control, the T/C (dose: 150.0 mg/kg/injection, schedule: Q01DX001 (ip), vehicle: carboxymethylcellulose (CMC)) is reported as 98 % of control and the T/C (dose: 300.0 mg/kg/injection, schedule: Q01DX001 (ip), vehicle: carboxymethylcellulose (CMC)) is reported as 98 % of control.

With `Cn1c(=O)c2c(nc(CCCC3CCCCC3)n2C)n(C)c1=O` the T/C [11] was 103 % of control, the T/C [12] was 97 % of control and the T/C [13] was 111 % of control. For the same compound, the T/C [14] was 103 % of control.

With `CCOC(=O)CNc1ccc(C)c(F)c1` the T/C (dose: 25.0 mg/kg/injection, schedule: Q04DX002 (ip), vehicle: Klucel (hydroxypropylcellulose) (HPC)) was 98 % of control, the T/C (dose: 50.0 mg/kg/injection, schedule: Q04DX002 (ip), vehicle: Klucel (hydroxypropylcellulose) (HPC)) was 98 % of control and the T/C [8] was 97 % of control and 109 % of control.

For `CCSC1OC(COC(C)=O)C(OC(C)=O)C1NC(C)=O` (stereo not given), the T/C [11] was 103 % of control, the T/C [12] was 113 % of control and the T/C [13] was 97 % of control. The T/C [14] was 107 % of control.

With `C[N+]1(C)CCC(=O)CC1` the T/C [2] was 98 % of control, the T/C [3] was 98 % of control and the T/C [4] was 95 % of control.

`O=NN(CCCl)C(=O)NCCc1cccc[n+]1[O-]` was tested, and the T/C (dose: 6.25 mg/kg/injection, schedule: Q01DX001 (ip), vehicle: water) was 154 % of control, the T/C (dose: 12.5 mg/kg/injection, schedule: Q01DX001 (ip), vehicle: water) was 184 % of control and the T/C (dose: 25.0 mg/kg/injection, schedule: Q01DX001 (ip), vehicle: water) was 312 % of control.

For `CC(O)(C(=O)O)c1ccc(Cl)c(Cl)c1` (stereo not given), the T/C (dose: 12.5 mg/kg/injection, schedule: Q01DX009 (ip), vehicle: saline with Tween-80) was 93 % of control, the T/C (dose: 25.0 mg/kg/injection, schedule: Q01DX009 (ip), vehicle: saline with Tween-80) was 93 % of control and the T/C [1] was 89 % of control. The T/C (dose: 200.0 mg/kg/injection, schedule: Q01DX009 (ip), vehicle: saline with Tween-80) was 100 % of control.

In the case of `OC(CN(CCCl)CCCl)C(O)C(O)C(O)CN(CCCl)CCCl` (stereo not given), the T/C (dose: 0.06 mg/kg/injection, schedule: Q01DX Z (ip), vehicle: saline) is reported as 102 % of control, the T/C (dose: 0.1 mg/kg/injection, schedule: Q01DX Z (ip), vehicle: saline) is reported as 102 % of control and the T/C (dose: 0.15 mg/kg/injection, schedule: Q01DX Z (ip), vehicle: saline) is reported as 105 % of control. For the same compound, the T/C (dose: 0.23 mg/kg/injection, schedule: Q01DX Z (ip), vehicle: saline) was 110 % of control, the T/C (dose: 0.25 mg/kg/injection, schedule: Q01DX Z (ip), vehicle: saline) was 103 % of control and the T/C (dose: 0.35 mg/kg/injection, schedule: Q01DX001 (ip), vehicle: saline) was 150 % of control. For the same compound, the T/C (dose: 0.6 mg/kg/injection, schedule: Q01DX Z (ip), vehicle: carboxymethylcellulose (CMC)) was 108 % of control, the T/C (dose: 0.8 mg/kg/injection, schedule: Q01DX001 (ip), vehicle: saline) was 154 % of control and the T/C (dose: 0.8 mg/kg/injection, schedule: Q01DX Z (ip), vehicle: saline) was 153 % of control and 170 % of control. The T/C (dose: 0.9 mg/kg/injection, schedule: Q01DX Z (ip), vehicle: carboxymethylcellulose (CMC)) was 102 % of control, the T/C (dose: 1.0 mg/kg/injection, schedule: Q01DX001 (ip), vehicle: saline) was 122 % of control and the T/C (dose: 1.35 mg/kg/injection, schedule: Q01DX Z (ip), vehicle: carboxymethylcellulose (CMC)) was 96 % of control. For the same compound, the T/C (dose: 1.9 mg/kg/injection, schedule: Q01DX001 (ip), vehicle: saline) was 158 % of control, the T/C (dose: 2.0 mg/kg/injection, schedule: Q01DX001 (ip), vehicle: saline) was 174 % of control and the T/C (dose: 2.0 mg/kg/injection, schedule: Q01DX Z (ip), vehicle: saline) was 155 % of control and 188 % of control. For the same compound, the T/C (dose: 2.03 mg/kg/injection, schedule: Q01DX Z (ip), vehicle: carboxymethylcellulose (CMC)) was 118 % of control, the T/C (dose: 4.0 mg/kg/injection, schedule: Q01DX001 (ip), vehicle: saline) was 152 % of control and the T/C (dose: 4.0 mg/kg/injection, schedule: Q01DX Z (ip), vehicle: saline) was 117 % of control. For the same compound, the T/C (dose: 5.0 mg/kg/injection, schedule: Q01DX001 (ip), vehicle: saline) was 194 % of control, the T/C (dose: 6.7 mg/kg/injection, schedule: Q01DX Z (ip), vehicle: saline) was 118 % of control and the T/C (dose: 8.0 mg/kg/injection, schedule: Q01DX001 (ip), vehicle: saline) was 97 % of control.

`O=C1c2ccccc2C(=O)N1c1c2ccccc2cc2ccccc12` was tested, and the T/C [5] was 98 % of control, the T/C [6] was 95 % of control and the T/C [7] was 95 % of control.

`CC(=O)CCCSCCOC(C)=O` was tested, and the T/C (dose: 100.0 mg/kg/injection, schedule: Q01DX009 (ip), vehicle: Klucel (hydroxypropylcellulose) (HPC)) was 95 % of control, the T/C (dose: 200.0 mg/kg/injection, schedule: Q01DX009 (ip), vehicle: Klucel (hydroxypropylcellulose) (HPC)) was 101 % of control and the T/C (dose: 400.0 mg/kg/injection, schedule: Q01DX009 (ip), vehicle: Klucel (hydroxypropylcellulose) (HPC)) was 101 % of control.
